For assay [1], the target named is T1, MAGL (Homo sapiens, UniProt Q99685).
T1 sequence (Q99685 1-303): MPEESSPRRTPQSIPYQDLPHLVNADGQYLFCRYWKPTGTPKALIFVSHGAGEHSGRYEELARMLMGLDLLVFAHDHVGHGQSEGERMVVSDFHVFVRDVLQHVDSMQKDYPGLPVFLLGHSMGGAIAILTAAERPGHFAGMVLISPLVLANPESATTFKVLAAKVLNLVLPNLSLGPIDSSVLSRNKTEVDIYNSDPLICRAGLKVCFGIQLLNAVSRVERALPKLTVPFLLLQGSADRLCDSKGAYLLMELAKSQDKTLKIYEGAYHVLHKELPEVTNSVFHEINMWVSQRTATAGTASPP
As to the kind of experiment: 2-AG assay (MAGL inhibitory activity, hydrolysis of 2-arachidonoylglycerol followed by mass spectrometry). The format is biochemical. The note with it: 50 pM MAGL, 8 μM 2-arachidonoylglycerol, 15 min pre-incubation, 30 min at RT. The method, then:
Compounds were profiled for MAGL inhibitory activity by determining the enzymatic activity by following the hydrolysis of the natural substrate, 2-arachidonoylglycerol, resulting in arachidonic acid, which can be followed by mass spectrometry. This assay is hereinafter abbreviated “2-AG assay”.
A C18 SPE cartridge (G9205A) was used in an acetonitrile/water liquid setup. […] The activity of the compounds was calculated based on the ratio of intensities [arachidonic acid/d8-arachidonic acid].

Assay [2] concerns the target T2, MAGL (Rattus norvegicus, UniProt Q8R431).
T2 sequence (Q8R431 1-303): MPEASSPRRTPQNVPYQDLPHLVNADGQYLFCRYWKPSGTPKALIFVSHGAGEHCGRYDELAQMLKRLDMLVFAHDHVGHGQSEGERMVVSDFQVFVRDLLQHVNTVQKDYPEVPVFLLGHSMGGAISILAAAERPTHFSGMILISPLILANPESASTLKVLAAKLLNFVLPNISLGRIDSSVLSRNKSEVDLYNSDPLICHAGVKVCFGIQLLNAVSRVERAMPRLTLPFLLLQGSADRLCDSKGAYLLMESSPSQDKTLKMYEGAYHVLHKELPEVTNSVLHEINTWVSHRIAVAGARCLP
As to the kind of experiment: In vivo binding to MAGL assessed by ex vivo autoradiography in CD(SD) rats. The note with it: male CD(SD) rats, 1 mCi/kg i.v., 90 min post injection; blocked by a high dose of a MAGL inhibitor. The arrangement: 10 μm sagittal brain sections from Wistar rats were used in in vitro autoradiography; from tissue; host or cells: rat brain (Wistar sections; CD(SD) rats dosed in vivo).
Experimental: Rats were sacrificed by decapitation 90 min after administration of the radioligand. Brains were rapidly removed and divided in two halves along their sagittal axis. The brain halves were frozen in dry ice for following cryosectioning. The hemisphere was placed in a cryostat and sagittal sections (10 μm thickness) were cut. Brain sections were mounted on Histobond glass slides (Marienfeld Laboratories Glassware, Germany), dried at room temperature and exposed, together with tritium microscales, to tritium-sensitive imaging plates (BAS-TR2025) for five days. The imaging plates were scanned in a Fujifilm BAS-5000 high resolution phosphor imager and the amount of [^3H]2 bound to the brain regions of interest was quantified with an MCID M2 image analysis system (Imaging Research Inc., St. Catherines, Ontario, Canada).

Assay [3] addresses T3, MAGL (Mus musculus, UniProt O35678).
T3 sequence (O35678 1-303): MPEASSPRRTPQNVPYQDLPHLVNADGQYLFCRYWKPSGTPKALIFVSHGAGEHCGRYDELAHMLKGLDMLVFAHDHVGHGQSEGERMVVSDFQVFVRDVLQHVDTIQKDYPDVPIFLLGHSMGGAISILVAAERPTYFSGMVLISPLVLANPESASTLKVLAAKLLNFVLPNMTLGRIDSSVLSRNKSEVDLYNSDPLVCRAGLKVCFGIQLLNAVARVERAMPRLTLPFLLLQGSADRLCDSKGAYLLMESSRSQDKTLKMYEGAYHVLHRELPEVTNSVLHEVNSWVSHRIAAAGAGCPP
As to the kind of experiment: In vitro autoradiography of 3H ligands on sagittal mouse brain sections (MAGL WT and ko). The conditions noted are these: 1 nM radioligand, 30 min; for binding on wt tissue samples (autoradiography): MAGL WT mouse brain sections; for binding on MAGL ko tissue sections (autoradiography; selectivity, non-specific binding): MAGL ko mouse brain sections.
Experimental: Receptor autoradiography was performed on sagittal sections of fresh-frozen brains from MAGL WT and ko mice (C57BL6/6NTac-Mgllem4993_02Tac). Tissue sections (10 μm) from brain specimens were cut in a cryostat (Leica CM3050) at −17° C. chamber temperature and −15° C. object temperature and thaw-mounted on microscope glass slides (HistoBond, Paul Marienfeld GmbH, Lauda-Königshofen, Germany). Brain sections were incubated for 30 min in 50 mM Tris-HCl buffer pH 7.4 with 0.1% BSA at RT containing 1 nM of the radioligand. Sections were rinsed three times for 10 min in ice-cold 50 mM Tris-HCl buffer, followed by three dips into ice-cold H2O and air-dried at 4° C. before being exposed to tritium-sensitive imaging plates (BAS-IP TR2025, Fujifilm, Dielsdorf, Switzerland) with a tritium microscale for 5 days at RT. The imaging plates were scanned with a high-resolution phosphor imager (Fuji BAS-5000, Bucher Biotec AG, Basel, Switzerland) and the binding intensity for selected brain areas was quantified using an MCID M2 image analysis software (version 7; InterFocus Imaging GmbH, Mering, Germany).

Assay [4] concerns the target T2, MAGL. As to the kind of experiment: In vitro autoradiography of 11C tracers on sagittal brain sections from Wistar rats.
Experimental: 10 μm sagittal brain sections from Wistar rats were used in in vitro autoradiography. On the day of experimentation, the slices were thawed on ice (10 min) and pre-conditioned in an aqueous buffer containing 30 mM 4-(2-hydroxyethyl)-1-piperazineethanesulfonic acid (HEPES), 1.2 mM MgCl2, 110 mM NaCl, 5 mM KCl, 2.5 mM CaCl2, and 1% fatty-acid-free bovine serum albumin (pH 7.4, 0° C.) for 10 min. The tissue samples were dried in air and subsequently incubated with radiotracer or a mixture of radiotracer and a cold MAGL inhibitor as a blocker at ambient temperature for 30 min. Upon completion of the incubation time, the slices were washed once for 3 min in the aqueous buffer described above, and twice for 2 min in the aqueous buffer described without 1% fatty-acid-free bovine serum albumin. After two quick dips in distilled water, the sections were dried in the air and exposed to a phosphor image plate for 1 h. The films were scanned by a BAS5000 reader (Fuji), and the data were analyzed using AIDA software, version 4.50.010 (Raytest Isotopenmessgeräte GmbH). For [^11C]1, 10 μM SAR127303 and 10 μg/mL 10 were used as blockers.

As usually defined, the IC50 is the concentration that inhibits the measured activity by half. A low value points to inhibition by little substance. At MAGL [1], `Cc1ccc(C(F)=CC2CN(C(=O)N3CC[C@@H]4OCC(=O)N[C@@H]4C3)C2)cc1F` (mixture of isomers) [Example 10, (4aR,8aS)-6-[3-[2-Fluoro-2-(3-fluoro-4-methyl-phenyl)vinyl]azetidine-1-carbonyl]-4,4a,5,7,8,8a-hexahydropyrido[4,3-b][1,4]oxazin-3-one] registered a concentration for half-maximal inhibition (IC50) of 20 nM.

For the compound `COc1cccc(F)c1CC1CC2(C1)CN(C(=O)N1CC[C@@H]3OCC(=O)N[C@@H]3C1)C2` [Example 2, (4aR,8aS)-6-[6-[(2-Fluoro-6-methoxy-phenyl)methyl]-2-azaspiro[3.3]heptane-2-carbonyl]-4,4a,5,7,8,8a-hexahydropyrido[4,3-b][1,4]oxazin-3-one], on MAGL [1], the IC50 came out at 0.07 nM.

On MAGL [1], `Cc1ccc(CCC2CN(C(=O)N3CC[C@@H]4OCC(=O)N[C@@H]4C3)C2)c(F)c1` [Example 3, (4aR,8aS)-6-[3-[2-(2-Fluoro-4-methyl-phenyl)ethyl]azetidine-1-carbonyl]-4,4a,5,7,8,8a-hexahydropyrido[4,3-b][1,4]oxazin-3-one] yielded an IC50 of 5 nM.

At MAGL [1], `COc1ccc(CCC2CN(C(=O)N3CC[C@@H]4OCC(=O)N[C@@H]4C3)C2)c(C(F)(F)F)c1` [Example 4, (4aR,8aS)-6-[3-[2-[4-Methoxy-2-(trifluoromethyl)phenyl]ethyl]azetidine-1-carbonyl]-4,4a,5,7,8,8a-hexahydropyrido[4,3-b][1,4]oxazin-3-one] registered an IC50 of 6 nM.

With `O=C1CO[C@H]2CCN(C(=O)N3CC(c4ccc(C5CCC5)cc4)C3)C[C@H]2N1` [Example 5, (4aR,8aS)-6-[3-(4-Cyclobutylphenyl)azetidine-1-carbonyl]-4,4a,5,7,8,8a-hexahydropyrido[4,3-b][1,4]oxazin-3-one], on MAGL [1], the IC50 amounted to 1 nM.

For `O=C1CO[C@H]2CCN(C(=O)N3CC4(CC(Cc5c(F)cccc5F)C4)C3)C[C@H]2N1` [Example 6, (4aR,8aS)-6-[6-[(2,6-Difluorophenyl)methyl]-2-azaspiro[3.3]heptane-2-carbonyl]-4,4a,5,7,8,8a-hexahydropyrido[4,3-b][1,4]oxazin-3-one], 0.1 nM corresponded to half-maximal inhibition on MAGL [1] (IC50).

For the compound `COc1ccccc1CC1CC2(C1)CN(C(=O)N1CC[C@@H]3OCC(=O)N[C@@H]3C1)C2` [Example 7, (4aR,8aS)-6-[6-[(2-Methoxyphenyl)methyl]-2-azaspiro[3.3]heptane-2-carbonyl]-4,4a,5,7,8,8a-hexahydropyrido[4,3-b][1,4]oxazin-3-one], the IC50 against MAGL [1] was 0.2 nM.

`CC(C)COc1ccc(C2CN(C(=O)N3CC[C@@H]4OCC(=O)N[C@@H]4C3)C2)cc1` [Example 9, (4aR,8aS)-6-[3-(4-isobutoxyphenyl)azetidine-1-carbonyl]-4,4a,5,7,8,8a-hexahydropyrido[4,3-b][1,4]oxazin-3-one] came in with an IC50 against MAGL [1] of 1 nM.

`Cc1ccc(/C(F)=C/C2CN(C(=O)N3CC[C@@H]4OCC(=O)N[C@@H]4C3)C2)cc1F` [Example 11, (4aR,8aS)-6-[3-[(Z)-2-Fluoro-2-(3-fluoro-4-methyl-phenyl)vinyl]azetidine-1-carbonyl]-4,4a,5,7,8,8a-hexahydropyrido[4,3-b][1,4]oxazin-3-one] returned an IC50 on MAGL [1] of 90 nM.

At MAGL [1], `Cc1ccc(/C(F)=C\C2CN(C(=O)N3CC[C@@H]4OCC(=O)N[C@@H]4C3)C2)cc1F` [Example 12, (4aR,8aS)-6-[3-[(E)-2-Fluoro-2-(3-fluoro-4-methyl-phenyl)vinyl]azetidine-1-carbonyl]-4,4a,5,7,8,8a-hexahydropyrido[4,3-b][1,4]oxazin-3-one] yielded an IC50 of 40 nM.

As to `COc1cccc(F)c1CC1CC2(C1)CN(C(=O)N1CC[C@@H]3OCC(=O)N[C@@H]3C1)C2` [Example [^3H]2, [^3H](4aR,8aS)-6-[6-[(2-Fluoro-6-methoxy-phenyl)methyl]-2-azaspiro[3.3]heptane-2-carbonyl]-4,4a,5,7,8,8a-hexahydropyrido[4,3-b][1,4]oxazin-3-one], at MAGL [2], the “in vivo binding to MAGL in brain (ex vivo autoradiography)” value was “Selective and specific binding to MAGL”. Moreover, on MAGL [3], the “binding on wt tissue samples (autoradiography)” value (shortened to “binding on wt tissue samples”) is “Selective binding to MAGL” and the “binding on MAGL ko tissue sections (autoradiography; selectivity, non-specific binding)” value is reported as “absence of binding”.

`Cc1ccc(CCC2CN(C(=O)N3CC[C@@H]4OCC(=O)N[C@@H]4C3)C2)c(F)c1` [Example [^3H]3, [^3H](4aR,8aS)-6-[3-[2-(2-Fluoro-4-methyl-phenyl)ethyl]azetidine-1-carbonyl]-4,4a,5,7,8,8a-hexahydropyrido[4,3-b][1,4]oxazin-3-one]: at MAGL [3], the “binding on wt tissue samples” value was “Selective binding to MAGL” and the “binding on MAGL ko tissue sections (autoradiography; selectivity, non-specific binding)” value is “absence of binding”.

Take `COc1ccc(CCC2CN(C(=O)N3CC[C@@H]4OCC(=O)N[C@@H]4C3)C2)c(C(F)(F)F)c1` [Example [^3H]4, [^3H](4aR,8aS)-6-[3-[2-[4-Methoxy-2-(trifluoromethyl)phenyl]ethyl]azetidine-1-carbonyl]-4,4a,5,7,8,8a-hexahydropyrido[4,3-b][1,4]oxazin-3-one]: at MAGL [3], the “binding on wt tissue samples” value is reported as “Selective binding to MAGL” and the “binding on MAGL ko tissue sections (autoradiography; selectivity, non-specific binding)” value is recorded as “absence of binding”.

In the case of `O=C1CO[C@H]2CCN(C(=O)N3CC(c4ccc(C5CCC5)cc4)C3)C[C@H]2N1` [Example [^11C]5, [^11C](4aR,8aS)-6-[3-(4-Cyclobutylphenyl)azetidine-1-carbonyl]-4,4a,5,7,8,8a-hexahydropyrido[4,3-b][1,4]oxazin-3-one], the “binding to MAGL on sagittal rat brain sections (autoradiography)” value at MAGL [4] (Wistar rat brain sections, radiotracer alone, 30 min) was “selectively bind to MAGL”. Besides, the “blocking of binding by cold MAGL inhibitors” value at MAGL [4] (co-incubation with blockers (10 μM SAR127303 and 10 μg/mL 10 for [11C]1; 10 μM SAR127303 and 10 μM PF-06795071 for [11C]5)) is “binding can be blocked”.

Source of the values: patent publication US20220202963A1, “RADIOLABELED COMPOUNDS” (Hoffmann-La Roche Inc., priority 2019, published 2022).
